Experimental data from PMC8371902, “Phase 1 study of M2698, a p70S6K/AKT dual inhibitor, in patients with advanced cancer” (Journal of Hematology & Oncology, 2021).

Assays:
[1] = tested on: advanced metastatic cancer; experiment: Antitumor activity: tumor response (RECIST 1.1) and progression-free survival; assay type: in vivo, human
Experimental: Tumor response was assessed using RECIST 1.1. As for drugs with cytostatic antitumor activity, disease control rate was defined as the sum of stable disease (SD) and objective response rates; SD was considered clinically beneficial. Progression-free survival (PFS) was measured from treatment initiation until disease progression or death and was estimated using the Kaplan–Meier method.

[2] = tested on: pS6 in tumor tissue; set-up: method as in PMID 27186432; settings: preclinical ref 21; cited from earlier work
[3] = PAM+ patients without confounding markers, M2698 monotherapy 160 mg, N=4
[4] = PAM+ patients without confounding markers, M2698 monotherapy 200 mg, N=3
[5] = PAM+ patients without confounding markers, M2698 monotherapy 240 mg, N=16
[6] = PAM+ patients without confounding markers, M2698 monotherapy 320 mg, N=11
[7] = PAM+ patients without confounding markers, M2698 monotherapy 380 mg, N=4
[8] = PAM+ patients without confounding markers, M2698 monotherapy, Total of all dose levels, N=47
[9] = PAM+ patients, M2698 monotherapy 15 mg, N=3
[10] = PAM+ patients, M2698 monotherapy 30 mg, N=2
[11] = PAM+ patients, M2698 monotherapy 60 mg, N=4
[12] = PAM+ patients, M2698 monotherapy 75 mg, N=2
[13] = PAM+ patients, M2698 monotherapy 110 mg, N=3
[14] = PAM+ patients, M2698 monotherapy 160 mg, N=6
[15] = PAM+ patients, M2698 monotherapy 200 mg, N=3
[16] = PAM+ patients, M2698 monotherapy 240 mg, N=16
[17] = PAM+ patients, M2698 monotherapy 320 mg, N=11
[18] = PAM+ patients, M2698 monotherapy 380 mg, N=4
[19] = PAM+ patients, M2698 monotherapy, Total of all dose levels, N=54
[20] = monotherapy, PAM+ with confounding alterations, 1/7

## NC(=O)c1cccc2c(N[C@H](CN3CCC3)c3ccc(Cl)c(C(F)(F)F)c3)ncnc12 [M2698]
[1]; [3]
  Response, NE: 0 (0.0) n (%)
  Response, PD: 2 (50.0) n (%)
  Response, SD at wk 6: 2 (50.0) n (%)
[1]; [4]
  Median PFS: 4.1 months
  Response, NE: 0 (0.0) n (%)
  Response, PD: 1 (33.3) n (%)
  Response, SD at wk 6: 2 (66.7) n (%)
[1]; [5]
  Median PFS: 1.9 months
  Response, NE: 3 (18.8) n (%)
  Response, PD: 8 (50.0) n (%)
  Response, SD at wk 6: 5 (31.3) n (%)
[1]; [6]
  Median PFS: 2.8 months
  Response, NE: 1 (9.1) n (%)
  Response, PD: 5 (45.5) n (%)
  Response, SD at wk 6: 5 (45.5) n (%)
[1]; [7]
  Median PFS: 6.2 months
  Response, NE: 2 (50.0) n (%)
  Response, PD: 0 (0.0) n (%)
  Response, SD at wk 6: 2 (50.0) n (%)
[1]; [8]
  Median PFS: 2.8 months
  Response, NE: 7 (14.9) n (%)
  Response, PD: 19 (40.4) n (%)
  Response, SD at wk 6: 21 (44.7) n (%)
[1]; PAM+ patients, monotherapy
  Clinical benefit rate: 40.7%
[1]; [9]
  Median PFS: 4.1 months
  Response, NE: 0 (0.0) n (%)
  Response, PD: 1 (33.3) n (%)
  Response, SD at wk 6: 2 (66.7) n (%)
[1]; [10]
  Median PFS: 10.3 months
  Response, NE: 0 (0.0) n (%)
  Response, PD: 0 (0.0) n (%)
  Response, SD at wk 6: 2 (100) n (%)
[1]; [11]
  Median PFS: 1.4 months
  Response, NE: 1 (25.0) n (%)
  Response, PD: 3 (75.0) n (%)
  Response, SD at wk 6: 0 (0.0) n (%)
[1]; [12]
  Median PFS: 2.1 months
  Response, NE: 0 (0.0) n (%)
  Response, PD: 1 (50.0) n (%)
  Response, SD at wk 6: 1 (50.0) n (%)
[1]; [13]
  Median PFS: 8.2 months
  Response, NE: 1 (33.3) 1 (33.3) 1 (33.3) n (%)
  Response, PD: 1 (33.3) 1 (33.3) 1 (33.3) n (%)
  Response, SD at wk 6: 1 (33.3) 1 (33.3) 1 (33.3) n (%)
[1]; [14]
  Median PFS: 1.6 months
  Response, NE: 0 (0.0) n (%)
  Response, PD: 4 (66.7) n (%)
  Response, SD at wk 6: 2 (33.3) n (%)
[1]; [15]
  Median PFS: 4.1 months
  Response, NE: 0 (0.0) n (%)
  Response, PD: 1 (33.3) n (%)
  Response, SD at wk 6: 2 (66.7) n (%)
[1]; [16]
  Median PFS: 1.9 months
  Response, NE: 3 (18.8) n (%)
  Response, PD: 8 (50.0) n (%)
  Response, SD at wk 6: 5 (31.3) n (%)
[1]; [17]
  Median PFS: 2.8 months
  Response, NE: 1 (9.1) n (%)
  Response, PD: 5 (45.5) n (%)
  Response, SD at wk 6: 5 (45.5) n (%)
[1]; [18]
  Median PFS: 6.2 months
  Response, NE: 2 (50.0) n (%)
  Response, PD: 0 (0.0) n (%)
  Response, SD at wk 6: 2 (50.0) n (%)
[1]; [19]
  Median PFS: 2.4 months
  Response, NE: 8 (14.8) n (%)
  Response, PD: 24 (44.4) n (%)
  Response, SD at wk 6: 22 (40.7) n (%)
[1]; in vivo
  Overall clinical benefit rate at 12 weeks: 27.4%
[1]; monotherapy cohort
  Patients with stable disease at 12 weeks: 27.4%
[1]; monotherapy cohort overall
  Patients with stable disease: 40.3%
[1]; monotherapy cohort, RECIST 1.1
  Objective response: no objective responses were noted
[1]; monotherapy overall
  Median PFS: 2.3 months
[1]; monotherapy, PAM+ patients
  Median PFS: 2.4 months
[1]; [20]
  Stable disease at 6 weeks: 14.3%
  Stable disease at 12 weeks: 14.3%
[1]; monotherapy, PAM+ without confounding alterations, 14/47
  Stable disease at 12 weeks: 29.8%
[1]; monotherapy, PAM+ without confounding alterations, 21/47
  Stable disease at 6 weeks: 44.7%
[1]; monotherapy, all PAM+ without confounding alterations
  PFS of the five patients with PFS ≥ 6 months: 7.1–16.4 months
[1]; monotherapy, n = 7
  Median PFS, PAM+ patients with confounding alterations (KRAS, EGFR, AKT2): 1.4 months
[1]; monotherapy, n = 47
  Median PFS, PAM+ patients without confounding alterations: 2.8 months
[2]
  Inhibition of pS6 in tumor tissue: dose-dependently inhibits pS6 in tumor tissue
